Data from patent US6414017B2, “Inhibition of hair growth” (The Gillette Company, priority 1993, dated 2002).

Test system: hair growth of flank organs
Experiment: hamster flank organ hair mass assay (reduction of hair growth)
Format: in vivo, Male intact Golden Syrian hamsters
Settings: for reducing hair growth (result in words): vehicle and test not given
Procedure: These organs produce hair in response to androgens in the hamster. To evaluate the effectiveness of a particular inhibitor in reducing hair growth, the flank organs of each of a group of hamsters are depilated by applying a thioglycolate based chemical depilatory (Surgex). To one organ of each animal 10 μl. of vehicle alone once a day is applied, while to the other organ of each animal an equal amount of vehicle containing the inhibitor is applied. After thirteen applications (one application per day for five days a week), the flank organs are shaved and the amount of recovered hair (hair mass) from each is weighed. […] Some preferred inhibitors were tested according to the above procedure.

[1] = Table 3: 5% in Vehicle A, pH 7.5
[2] = Table 3: 10% in Vehicle A, pH 7.5
[3] = Table 3: 10% in Vehicle F, pH 5.5
[4] = Table 3: 15% in Vehicle A, pH 7.5
[5] = Table 3: 20% in Vehicle A, pH 8.0
[6] = Table 3: 20% in Vehicle B, pH 7.0
[7] = Table 3: 20% in Vehicle F, pH 5.5

Cc1c(C)c2c(c(C)c1O)CCC(C)(CCCC(C)CCCC(C)CCCC(C)C)O2 (racemic) [dl-α-tocopherol]
reducing hair growth (result in words): effective in reducing hair growth

O=C(O)C=Cc1ccc(O)c(O)c1 [Caffeic acid, 3,4-dihydroxycinnamic acid]
Hair Mass Treated (Dose 15%, Vehicle H, pH 4.0, thirteen applications): 0.797 ± .13 mg | Percent Inhibition (Dose 15%, Vehicle H, pH 4.0, vs vehicle treated side): 62 ± 7% | reducing hair growth (result in words): effective in reducing hair growth

CC(C(=O)O)c1ccc2c(c1)[nH]c1ccc(Cl)cc12 (stereo not drawn) [Carprofen, 6-chloro-α-methylcarbazole-2-acetic acid]
Hair Mass Treated (Dose 20%, Vehicle C, pH 6.0, thirteen applications): 0.776 ± .11 mg | Percent Inhibition (Dose 20%, Vehicle C, pH 6.0, vs vehicle treated side): 29.69%

COc1ccc2c(c1)c(CC(=O)O)c(C)n2C(=O)c1ccc(Cl)cc1 [Indomethacin, 1-[p-chlorobenzoyl]-5-methoxy-2-methylindole-3-acetic acid]
Hair Mass Treated [1]: 1.248 ± .20 mg | Percent Inhibition [1]: 43.41 ± 7.75% | Hair Mass Treated [2]: 1.084 ± .11 mg | Percent Inhibition [2]: 53.32 ± 4.17% | Hair Mass Treated [3]: 0.679 ± .08 mg | Percent Inhibition [3]: 49.89 ± 5.54% | Hair Mass Treated [4]: 0.768 ± .10 mg | Percent Inhibition [4]: 68.77 ± 3.02% | Hair Mass Treated [5]: 0.307 ± .08 mg | Percent Inhibition [5]: 83.78 ± 3.66% | Hair Mass Treated [6]: 0.261 ± .01 mg | Percent Inhibition [6]: 83.37 ± 1.46% | Hair Mass Treated [7]: 0.324 ± .08 mg | Percent Inhibition [7]: 78.43 ± 4.39%

Cc1cccc(Nc2ccccc2C(=O)O)c1C [Mefenamic acid, 2-[(2,3-dimethylphenyl)amino]benzoic acid]
Hair Mass Treated (Dose 10%, Vehicle A, pH 8.8, thirteen applications): 0.518 ± .13 mg | Percent Inhibition (Dose 10%, Vehicle A, pH 8.8, vs vehicle treated side): 67.18%

CC(Cc1ccc(O)c(O)c1)C(C)Cc1ccc(O)c(O)c1 (stereo not drawn) [NDGA, nordihydroguaiaretic acid]
Hair Mass Treated (Dose 10%, Vehicle B, pH 6.5, thirteen applications): 0.450 ± .11 mg | Percent Inhibition (Dose 10%, Vehicle B, pH 6.5, vs vehicle treated side): 81 ± 4% | reducing hair growth (result in words): effective in reducing hair growth

COc1ccc2cc(CCC(C)=O)ccc2c1 [Nabumetone, 4-[6-methoxy-2-naphthyl]-2-butanone]
Hair Mass Treated (Dose 15%, Vehicle E, pH 6.0, thirteen applications): 1.267 ± .23 mg | Percent Inhibition (Dose 15%, Vehicle E, pH 6.0, vs vehicle treated side): 23.23%

CCCOC(=O)c1cc(O)c(O)c(O)c1 [Propyl gallate, propyl gallate]
reducing hair growth (result in words): effective in reducing hair growth

O=c1c(O)c(-c2ccc(O)c(O)c2)oc2cc(O)cc(O)c12 [Quercetin, 3,3′,4′,5,7-pentahydroxy flavone]
Hair Mass Treated (Dose 5%, Vehicle G, pH 6.0, thirteen applications): 1.100 ± .10 mg | Percent Inhibition (Dose 5%, Vehicle G, pH 6.0, vs vehicle treated side): 27 ± 6% | Hair Mass Treated (Dose 10%, Vehicle E, pH 5.5, thirteen applications): 0.419 ± .07 mg | Percent Inhibition (Dose 10%, Vehicle E, pH 5.5, vs vehicle treated side): 83 ± 4% | reducing hair growth (result in words): effective in reducing hair growth

CN1C(C(=O)Nc2ccccn2)=C(O)c2sccc2S1(=O)=O [Tenoxican, 4-hydroxy-2-methyl-N-2-pyridinyl-2H-thieno[2,3-e]-1,2-thiazine-3-carboxamide-1,1-dioxide]
Hair Mass Treated (Dose 15%, Vehicle B, pH 8.0, thirteen applications): 0.326 ± .08 mg | Percent Inhibition (Dose 15%, Vehicle B, pH 8.0, vs vehicle treated side): 85.38%

O=c1cc(-c2ccc(O)cc2)oc2cc(O)cc(O)c12 [apigenin, 4′,5,7-trihydroxy flavone]
reducing hair growth (result in words): effective in reducing hair growth
